Reference: patent US11866704B2, “Nucleic acid molecules and uses thereof” (Macau University of Science and Technology, priority 2020, dated 2024)
[s4U] = 4-thiouridine base; m = 2'-O-methyl; r = 2'-OH (RNA)

B1: tRNA-Leu(CAG): tRNA purified from Escherichia coli MRE600 total tRNA, SEQ ID NO: 218 (nucleic acid, listed as Escherichia coli)
chain: GCGAAGGUGGCGGAANNGGNAGACGCGCUAGCUUCAGGNGNUAGUGUCCUUACGGACGUGGGGGUNCAAGUCCCCCCCCUCGCACCA
modifications: expressed or natural sequence
B2: tRNA-Val(UAC): tRNA purified from Escherichia coli MRE600 total tRNA, SEQ ID NO: 237 (nucleic acid, listed as Escherichia coli)
chain: GGGUGAUUAGCUCAGCDGGGAGAGCACCUCCCUUACAAGGAGGGGGUCGGCGGUNCGAUCCCGUCAUCACCCACCA
modifications: expressed or natural sequence

Legend:
[1] = tested on: HCT-8 human ileocecal colorectal adenocarcinoma cell line; assay: MTT cytotoxicity assay on HCT-8 cells; assay type: cell-based; details: for IC50 / effect on growth and proliferation (FIGS. 7A, 7B): HCT-8; for IC50: MTT, 48 h treatment; for cell viability of HCT-8 cells (FIG. 6A): 50 nM, 48 h, vs control and RNAiMAX group; for effect on growth and proliferation (FIGS. 7A, 7B): 6.25-100 nM
Experimental: (§1) HCT-8, fluorouracil-resistant HCT-8, fluorouracil-resistant LoVo cell lines were cultured in RPMI Medium 1640 medium containing 10% FBS and 1% penicillin/streptomycin. LoVo cell line was cultured in F-12K medium containing 10% FBS and 1% penicillin/streptomycin. All cell lines above were cultured at humidified atmosphere containing 5% CO2 at 37° C.
(§2) In the cytotoxicity assay, exponentially growing cells of each cancer cell line were plated in 96-well microplate at a density of 5000 cells per well in 100 μL of culture medium and allowed to adhere for 24 h before treatment. Serial concentrations of RNA molecules obtained in Example 1 to 4 in a mixture containing a gene delivery carrier, i.e. Lipofectamine™ RNAiMAX Transfection Reagent (Thermo Fisher Scientific, U.S.A.) were then added to the cells. After treated for 48 h, MTT solution (50 μL per well, 1 mg/mL solution) was added to each well and incubated for 4 h at 37° C. Subsequently, 200 μL dimethyl sulfoxide (DMSO) were added and the optical densities of the resulting solutions were calorimetrically determined at 570 nm using a SpectraMax 190 microplate reader (Molecular Devices, Sunnyvale, CA, U.S.A). Dose-response curves were obtained, and the IC50 values were calculated by GraphPad Prism 5 (GraphPad, La Jolla, CA, USA). Each experiment was carried out for three times. IC50 results were expressed as means±standard deviation.

[2] = tested on: HCT-8/5-FU (5-FU-resistant strain of HCT-8); assay: MTT cytotoxicity assay on HCT-8/5-FU cells; assay type: cell-based, human; details: for IC50: MTT, 48 h treatment; for effect on growth and proliferation (FIGS. 7A, 7B): 6.25-100 nM
Experimental: as §1, §2

[3] = tested on: LoVo colorectal adenocarcinoma cell line; assay: MTT cytotoxicity assay on LoVo cells; assay type: cell-based; details: for IC50: MTT, 48 h treatment; for effect on growth and proliferation (FIGS. 7A, 7B): 6.25-100 nM
Experimental: as §1, §2

[4] = tested on: LoVo/5-FU (5-FU-resistant strain of LoVo); assay: MTT cytotoxicity assay on LoVo/5-FU cells; assay type: cell-based; details: for IC50: MTT, 48 h treatment; for effect on growth and proliferation (FIGS. 7A, 7B): 6.25-100 nM
Experimental: as §1, §2

[5] = tested on: HCT-8 cells; assay: Clonogenic assay on HCT-8 cells; assay type: cell-based, human; details: 50 nM; for colony number, inhibition of proliferation (FIG. 8A): vs control group
Experimental: as §1
(§3) In the clonogenic assay, HCT-8 or LoVo cells were plated in 6-well microplate at a density of 1000 cells per well in 2 mL of culture medium and allowed to adhere for 24 h before treatment. Single concentration of RNA molecules obtained in Example 1 to 4 in a mixture containing a gene delivery carrier, i.e. Lipofectamine™ RNAiMAX Transfection Reagent (Thermo Fisher Scientific, U.S.A.) were then added to the cells. After treated for 48 h, discarded the drug solutions and replaced with 2 mL of fresh culture medium. After culture 14 days, discarded the culture medium and the cells were fixated with 4% paraformaldehyde fix solution for 20 min, followed by stained with crystal violet for 10 min and then washed by deionized water. The 6-well microplate was photographed and the number of colonies with more than 50 individual cells were counted using ImageJ software (U.S.A.). Each experiment was carried out for three times. Results were expressed as means±standard deviation.

[6] = tested on: LoVo cells; assay: Clonogenic assay on LoVo cells; assay type: cell-based; details: 25 nM; for colony number, inhibition of proliferation (FIG. 8B): vs control group
Experimental: as §1, §3

[7] = tested on: HCT-8 cells; assay: Wound-healing assay on HCT-8 cells; assay type: cell-based, human; details: 50 nM; for wound area, inhibition of migration (FIG. 9A): vs control group
Experimental: as §1
as §3, with “wound-healing” for “clonogenic”, “500,000” for “1000”, “[…]” for “Single concentration”, “[…] A 1 mL bacteria-free pipette tip was used to make a cross-scratch at the bottom of 6-well microplate. The cells in the scratch were washed away using phosphor buffer solution and the 6-well microplate was photographed under a microscope. Single concentration of RNA molecules obtained in Example 1 to 4 in a mixture containing a gene delivery carrier, i.e. Lipofectamine™ RNAiMAX Transfection Reagent (Thermo Fisher Scientific, U.S.A.) were then added to the cells. The cells were then photographed under microscope at 24 and 48 h. ImageJ software was applied to quantify the area of wound created. Each experiment was carried out for three times. Results were expressed as means±standard deviation.” for “deviation.”

[8] = tested on: LoVo cells; assay: Wound-healing assay on LoVo cells; assay type: cell-based; details: 25 nM; for wound area, inhibition of migration (FIG. 9B): vs control group
Experimental: as §1
as §3, with “wound-healing” for “clonogenic”, “500,000” for “1000”, “[…]” for “Single concentration”, “[…] A 1 mL bacteria-free pipette tip was used to make a cross-scratch at the bottom of 6-well microplate. The cells in the scratch were washed away using phosphor buffer solution and the 6-well microplate was photographed under a microscope. Single concentration of RNA molecules obtained in Example 1 to 4 in a mixture containing a gene delivery carrier, i.e. Lipofectamine™ RNAiMAX Transfection Reagent (Thermo Fisher Scientific, U.S.A.) were then added to the cells. The cells were then photographed under microscope at 24 and 48 h. ImageJ software was applied to quantify the area of wound created. Each experiment was carried out for three times. Results were expressed as means±standard deviation.” for “deviation.”

[9] = among EC83 mimic and modified mimics

Molecule	cell viability of HCT-8 cells (FIG. 6A) [1]	effect on growth and proliferation (FIGS. 7A, 7B) [1]	IC50 [1]	effect on growth and proliferation (FIGS. 7A, 7B) [2]	IC50 [2]	effect on growth and proliferation (FIGS. 7A, 7B) [3]	IC50 [3]	effect on growth and proliferation (FIGS. 7A, 7B) [4]	IC50 [4]	colony number, inhibition of proliferation (FIG. 8A) [5]	colony number, inhibition of proliferation (FIG. 8B) [6]	wound area, inhibition of migration (FIG. 9A) [7]	wound area, inhibition of migration (FIG. 9B) [8]	further results
O=c1[nH]cc(F)c(=O)[nH]1 [5-FU, fluorouracil, reference compound]	–	–	–	–	–	–	–	–	–	–	–	–	–	IC50 ([1]; Homo sapiens): 41400 nM; IC50 ([2]; Homo sapiens): 171000 nM; IC50 ([3]; Homo sapiens): 63900 nM; IC50 ([4]; Homo sapiens): 133000 nM
EC41 mimic: 22 bp dsRNA; antisense SEQ ID NO: 47 GGGUGAUUAGCUCAGCUGGGAG, sense SEQ ID NO: 141 CUCCCAGCUGAGCUAAUCACCC; 5′-t of tRNA-Val(UAC) (listed as RNA, chemistry not given here) [22 bp dsRNA; 5′-t of tRNA-Val(UAC)]	effective to colorectal cancer cells	–	–	–	–	–	–	–	–	–	–	–	–	–
EC42 mimic: 22 bp dsRNA; antisense SEQ ID NO: 48 UCGAUCCCGUCAUCACCCACCA, sense SEQ ID NO: 142 UGGUGGGUGAUGACGGGAUCGA; 3′-t of tRNA-Val(UAC) (listed as RNA, chemistry not given here) [22 bp dsRNA; 3′-t of tRNA-Val(UAC)]	effective to colorectal cancer cells	–	–	–	–	–	–	–	–	–	–	–	–	–
EC83 mimic: 22 bp dsRNA; antisense SEQ ID NO: 89 GCCGAAGUGGCGAAAUCGGUAG, sense SEQ ID NO: 183 CUACCGAUUUCGCCACUUCGGC; 5′-t of tRNA-Leu(CAA) (RNA, backbone not given here; tRNA-derived fragment mimic duplex) [22 bp dsRNA; 5′-t of tRNA-Leu(CAA)]	–	dose-dependent effect on inhibiting the growth and proliferation	70.6 nM	dose-dependent effect on inhibiting the growth and proliferation	63.4 nM	dose-dependent effect on inhibiting the growth and proliferation	28.8 nM	dose-dependent effect on inhibiting the growth and proliferation	29.5 nM	significantly inhibit the proliferation	significantly inhibit the proliferation	significantly inhibit the migration	significantly inhibit the migration	cytotoxicity ranking on HCT-8 cells (FIG. 6C) ([1]; among synthetic RNA molecules of Example 4): strongest cytotoxicity
EC83-M1 mimic: modified EC83 dsRNA; antisense SEQ ID NO: 1 GCCGAAG[s^4U]GGCGAAAUCGGUAG, sense SEQ ID NO: 4 CUACCGAUUUCGCCACUUCGGC (antisense GCCGAAGUGGCGAAAUCGGUAG; antisense: RNA, [s4U] at 8, backbone not given here; sense: RNA, backbone not given here; tRNA-derived fragment mimic duplex)	–	dose-dependent effect on inhibiting the growth and proliferation	77.9 nM	dose-dependent effect on inhibiting the growth and proliferation	69.6 nM	dose-dependent effect on inhibiting the growth and proliferation	43.6 nM	dose-dependent effect on inhibiting the growth and proliferation	54.2 nM	significantly inhibit the proliferation	significantly inhibit the proliferation	significantly inhibit the migration	significantly inhibit the migration	–
EC83-M2 mimic: modified EC83 dsRNA; antisense SEQ ID NO: 2 GCCGAAGUGGCGAAAUC[Gm]GUAG, sense SEQ ID NO: 5 CUACCGAUUUCGCCACUUCGGC (antisense GCCGAAGUGGCGAAAUCGGUAG; antisense: sugars from the 5' end r17 m1 r4, backbone not given here; sense: RNA, backbone not given here; tRNA-derived fragment mimic duplex)	–	dose-dependent effect on inhibiting the growth and proliferation	58.9 nM	dose-dependent effect on inhibiting the growth and proliferation	48.8 nM	dose-dependent effect on inhibiting the growth and proliferation	19.9 nM	dose-dependent effect on inhibiting the growth and proliferation	18.3 nM	significantly inhibit the proliferation	significantly inhibit the proliferation	significantly inhibit the migration	significantly inhibit the migration	anti-proliferation activity ranking (FIG. 8A) [5, 9]: strongest anti-proliferation activity; anti-proliferation activity ranking (FIG. 8B) [6, 9]: strongest anti-proliferation activity; wound healing inhibition ranking (FIG. 9A) [7, 9]: strongest inhibition effect on the wound healing; wound healing inhibition ranking (FIG. 9B) [8, 9]: strongest inhibition effect on the wound healing
EC85 mimic: 22 bp dsRNA; antisense SEQ ID NO: 91 GCGAAGGUGGCGGAAUUGGUAG, sense SEQ ID NO: 185 CUACCAAUUCCGCCACCUUCGC; 5′-t of tRNA-Leu(CAG) (listed as RNA, chemistry not given here) [22 bp dsRNA; 5′-t of tRNA-Leu(CAG)]	effective to colorectal cancer cells	–	–	–	–	–	–	–	–	–	–	–	–	–
EC86 mimic: 22 bp dsRNA; antisense SEQ ID NO: 92 UCAAGUCCCCCCCCUCGCACCA, sense SEQ ID NO: 186 UGGUGCGAGGGGGGGGACUUGA; 3′-t of tRNA-Leu(CAG) (listed as RNA, chemistry not given here) [22 bp dsRNA; 3′-t of tRNA-Leu(CAG)]	effective to colorectal cancer cells	–	–	–	–	–	–	–	–	–	–	–	–	–
B1	effective to colorectal cancer cells	–	–	–	–	–	–	–	–	–	–	–	–	–
B2	effective to colorectal cancer cells	–	–	–	–	–	–	–	–	–	–	–	–	–
